In US20220354754A1, “FOAM COMPOSITIONS” (The Procter & Gamble Company, priority 2021, published 2022):

Assay: Water solubility of blowing agents at 20° C.
Details: in water

| Compound | Water solubility at 20° C. (weight percent) |
| --- | --- |
| CCCC [Butane] | <0.01% weight percent |
| O=C=O [Carbon dioxide] | 0.8% weight percent |
| COC [Dimethyl ether] | 7% weight percent |
| [He] [Helium] | <0.01 weight percent |
| CC(C)C [Isobutane] | <0.01% weight percent |
| [N-]=[N+]=O [Nitrous oxide] | 0.12 weight percent |
